This note sets out measurements from US10369138B2, “Monobactam organic compounds for the treatment of bacterial infections” (Novartis AG, priority 2014, dated 2019).

One experiment has as its system E. coli containing KPC-2. In words: MIC by broth microdilution, E. coli containing KPC-2 (Ec KPC2 Iso). The settings on record: Escherichia coli, read-out: Ec KPC2 Iso (MIC), E. coli containing KPC-2 (carbapenemase from Klebsiella pneumoniae). It is filed as cell-based. An outline of the steps:
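Host E. coli BW25113 pspB carrying multicopy pBAD18-kan plasmid with constitutive TEM-promoter KPC-2 expression (periplasmic signal sequence); broth microdilution per CLSI in cation-adjusted Mueller-Hinton broth, inoculum ~5×10^5 CFU/mL, compounds twofold serially diluted from DMSO masters (10% DMSO in dilution series added).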

The test system of another experiment is E. coli strain 25922. Kind of experiment: MIC by broth microdilution, E. coli strain 25922. Type of experiment: cell-based. The note with it: Escherichia coli, 25922, E. coli strain 25922; read-out: Ec 25922 (MIC). Put shortly: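 CLSI broth microdilution in cation-adjusted Mueller-Hinton broth, inoculum about 5×10^5 CFU/mL, 10% DMSO from the diluted series, 20 h at 35-37° C. MIC is the lowest concentration preventing visible growth, read by eye and at 600 nm.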

Converted amounts (≈) assume the structure as drawn.

As for `N=C(NCCCN)c1ccc(OC[C@H](O/N=C(\C(=O)N[C@@H]2C(=O)N(S(=O)(=O)O)[C@@H]2Cn2cncn2)c2csc(N)n2)C(=O)O)cc1` [Example 78, (S)-2-(((Z)-(2-(((2R,3S)-2-((1H-1,2,4-triazol-1-yl)methyl)-4-oxo-1-sulfoazetidin-3-yl)amino)-1-(2-aminothiazol-4-yl)-2-oxoethylidene)amino)oxy)-3-(4-(N-(3-aminopropyl)carbamimidoyl)phenoxy)propanoic acid], the MIC in the experiment on E. coli containing KPC-2 was 0.125 µg/mL (≈ 0.184 µM); in the experiment with E. coli strain 25922 it was at most 0.06 µg/mL.
On to `CC(C)(O/N=C(\C(=O)N[C@@H]1C(=O)N(S(=O)(=O)O)[C@@H]1CN1C[C@@H](CN)OC1=O)c1csc(N)n1)C(=O)O` [Example 57, 2-(((Z)-(2-(((2R,3S)-2-(((R)-5-(aminomethyl)-2-oxooxazolidin-3-yl)methyl)-4-oxo-1-sulfoazetidin-3-yl)amino)-1-(2-aminothiazol-4-yl)-2-oxoethylidene)amino)oxy)-2-methylpropanoic acid], for which the MIC in the experiment on E. coli containing KPC-2 is 1 µg/mL (≈ 1.82 µM); in the experiment on E. coli strain 25922, 0.5 µg/mL (≈ 0.91 µM).
The matching figures for `CC(C)(O/N=C(\C(=O)N[C@@H]1C(=O)N(S(=O)(=O)O)[C@@H]1Cn1ncnc1CNC(=N)N)c1csc(N)n1)C(=O)O` [Example 13, 2-(((Z)-(1-(2-aminothiazol-4-yl)-2-(((2R,3S)-2-((5-(guanidinomethyl)-1H-1,2,4-triazol-1-yl)methyl)-4-oxo-1-sulfoazetidin-3-yl)amino)-2-oxoethylidene)amino)oxy)-2-methylpropanoic acid]: 32 µg/mL (≈ 55.8 µM) and 16 µg/mL (≈ 27.9 µM).
Taken in the same sequence, the figures for `CC(C)(O/N=C(\C(=O)N[C@@H]1C(=O)N(S(=O)(=O)O)[C@@H]1Cn1cc(CCN2CCNCC2)nn1)c1csc(N)n1)C(=O)O` [Example 42, 2-(((Z)-(1-(2-aminothiazol-4-yl)-2-oxo-2-(((3S,4R)-2-oxo-4-((4-(2-(piperazin-1-yl)ethyl)-1H-1,2,3-triazol-1-yl)methyl)-1-sulfoazetidin-3-yl)amino)ethylidene)amino)oxy)-2-methylpropanoic acid] were 2 µg/mL (≈ 3.25 µM) and 1.4 µg/mL (≈ 2.28 µM).
The matching figures for `NCCNC(=O)NC[C@@H]1CN(C[C@@H]2[C@H](NC(=O)/C(=N\OC3(C(=O)O)CC3)c3csc(N)n3)C(=O)N2S(=O)(=O)O)C(=O)O1` [Example 111, 1-(((Z)-(2-(((2R,3S)-2-(((R)-5-((3-(2-aminoethyl)ureido)methyl)-2-oxooxazolidin-3-yl)methyl)-4-oxo-1-sulfoazetidin-3-yl)amino)-1-(2-aminothiazol-4-yl)-2-oxoethylidene)amino)oxy)cyclopropanecarboxylic acid]: at most 0.06 µg/mL and at most 0.06 µg/mL.
Take `Nc1nc(/C(=N/OC2(C(=O)O)CC2)C(=O)N[C@@H]2C(=O)N(S(=O)(=O)O)[C@@H]2CN2C(=O)COC2=O)cs1` [Example 95, 1-(((Z)-(1-(2-aminothiazol-4-yl)-2-(((2R,3S)-2-((2,4-dioxooxazolidin-3-yl)methyl)-4-oxo-1-sulfoazetidin-3-yl)amino)-2-oxoethylidene)amino)oxy)cyclopropanecarboxylic acid]: the figures for the minimum inhibitory concentration (MIC) with E. coli containing KPC-2 and in the experiment with E. coli strain 25922 were 0.125 µg/mL (≈ 0.235 µM) and 0.25 µg/mL (≈ 0.47 µM), respectively.
For the compound `CC(C)(O/N=C(\C(=O)N[C@@H]1C(=O)N(S(=O)(=O)O)[C@@H]1CN1CCCCC1=O)c1csc(N)n1)C(=O)O` [Example 14, 2-(((Z)-(1-(2-aminothiazol-4-yl)-2-oxo-2-(((3S,4R)-2-oxo-4-((2-oxopiperidin-1-yl)methyl)-1-sulfoazetidin-3-yl)amino)ethylidene)amino)oxy)-2-methylpropanoic acid], the MIC in the experiment with E. coli containing KPC-2 was determined as 8 µg/mL (≈ 15 µM); with E. coli strain 25922, 16 µg/mL (≈ 30 µM).
With `CC(NC(=N)NCCCN)c1cnn(C[C@@H]2[C@H](NC(=O)/C(=N\OC3(C(=O)O)CC3)c3csc(N)n3)C(=O)N2S(=O)(=O)O)n1` (stereo partly drawn) [Example 145, 1-(((Z)-(2-(((2R,3S)-2-((4-(1-(3-(3-aminopropyl)guanidino)ethyl)-2H-1,2,3-triazol-2-yl)methyl)-4-oxo-1-sulfoazetidin-3-yl)amino)-1-(2-aminothiazol-4-yl)-2-oxoethylidene)amino)oxy)cyclopropanecarboxylic acid], the MIC in the experiment on E. coli containing KPC-2 and in the experiment with E. coli strain 25922 was 0.5 µg/mL (≈ 0.778 µM) throughout.
